Reference: patent publication US10882863B2, “Compounds for reducing c-Myc in c-Myc overexpressing cancers background” (The Trustees of Columbia University in the City of New York, priority 2016, dated 2021)
Read-outs that look alike come from different tables or passages of the source. Blank lines part the entries; values can stand above or below the compound they belong to.

What was measured:
LY7 cells = assay: Cell Titer Glo viability, lymphoma cell line LY7 (OCI-LY7, GCB-DLBCL); type: cell-based; conditions: for viability at 15 µM: LY7, 15 uM; for viability at 25 µM: LY7, 25 uM
Experimental: (§1) Cytotoxicity was performed on cultured cells using Cell Titer Glo, as previously described. Experiments were carried out in 96-well plates, with each treatment in triplicate. Samples were taken at typically 24 hours, 48 hours, and/or 72 hours after treatment, as indicated. Cytotoxicity was expressed by the decreasing percentage of live cells in each treatment relative to the untreated control from the same experiment, as a function of time. IC50 (half the maximal inhibitory concentration) for each cell line was calculated using the CalcuSyn Version 2.0 software (Biosoft).
The lymphoma cell line LY7 was treated with CUX-03166 for 24 hr (diamond), 48 hours (square) and 72 hours (triangle). Viability was determined similar to that for Example 2. […] At 25 uM concentrations, viability dropped to 0% at 24 hours.
(§2) CUX-0404A reduces viability of OCI-LY7 cells (germinal center diffuse large B cell lymphoma, GCB-DLBCL), see FIG. 4. The lymphoma cell line LY7 was treated with CUX-0404A for 24 hours (dark circle), 48 hours (light circle) or CUX0404B for 24 hours (dark square) or 48 hours (light square). Viability was determined similar to that for FIG. 1. At 15 uM concentrations, viability of cells dropped to 60% at 24 hours, ˜42% at 48 hours, At 25 uM concentrations, viability dropped to 0% at 24 hours. FIG. 5. CUX-0404A reduces viability of Z-138 (mantle cel lymphoma, MCL) cells more potently than TG-1202. […] Viability was determined similar to that for FIG. 1. At 25 uM concentrations, viability of cells dropped to 20% for the CUX-0404A treatment as compared to 60% for TGR-1202

c-Myc [1] = assay: Western blot of c-Myc level in LY7 (GCB-DLBCL) cells; type: cell-based; conditions: for reduction in c-Myc (Western blot): LY-7, 25 uM, 6 hours
Experimental: (§3) Western blot was performed on whole protein extract from cultured cells under specified treatment conditions, most often for 24 hours. Western blotting was performed according to standard protocols, using the chemiluminescence detection system from Thermo Scientific. The primary antibodies were purchased from Cell Signaling Technology unless specified otherwise, and were against these proteins: 4EBP1, phos-4EBP1, S6K, phos-S6K, Bcl2, Bcl-xL, PARP, c-myc, B-catenin, P-4EBP1 (S65), P-4EBP1 (T70). Signals of beta-actin and GAPDH were used as loading control. Goat anti-rabbit or anti-mouse secondary antibodies were purchased from Santa Cruz Biotechnology.
(§4) The lymphoma cell lines LY10 and LY7 were treated with PF4800567 (PF), Cal-101 (Cal), TGR-1202 (TG) and CUX-03166 as single agents for 6 hours all at 25 uM concentrations. Protein extracts were processed for Western blot using antibodies against c-Myc, B-Catenin, phosphorylated 4EBP1, total 4EBP1, and beta actin.
(§5) FIG. 6. […] Protein extracts were processed for Western blot using antibodies against c-Myc, B-Catenin, phosphorylated 4EBP1, total 4EBP1, P-p70S6K, P70S6K, PARP and beta actin.

LY10 cells = assay: Cell Titer Glo viability, lymphoma cell line LY10; type: cell-based; conditions: for viability at 50 µM: LY10, 50 uM
Experimental: as §1
The lymphoma cell line LY10 was treated with CUX-03166 (′166 compound) for 24 hours, 48 hours and 72 hours. Cells were collected from the treatment group and the vehicle treated negative control. Viable cells were quantitated by the Cell-Titer Glo assay from Promega. Viable cells in the treated cells were expressed as a percentage of the negative control. […] At a concentration of 50 uM, viability of cells drop to 0% just at 24 hours of treatment. Cells were also treated with Cal-101 and TGR-1202 and viability was determined at 24 hr. For lower concentrations of 5 μm and 15 μM, viability dropped to ˜80% for both treatments. However, as concentrations increased up to 50 μM, viability remained at ˜80% for Cal-101 and modestly dropped to ˜65% for TGR-1202, as shown in FIG. 1.

c-Myc [2] = assay: Western blot of c-Myc level in LY10 cells; type: cell-based; conditions: LY-10, 25 uM, 6 hours, vs vehicle
Experimental: as §3, §4

CK1epsilon = molecular target: T1, CK1epsilon (Homo sapiens, UniProt P49674); assay: CK1ε kinase activity assay (radioisotope filtration binding assay); type: biochemical; conditions: 10 μM ATP, 3-fold serial dilution from 100 μM
T1 construct: purchased Reaction Biology
Experimental: The CK-1 assay was conducted according to the techniques disclosed in Anastassiadis et al, Nat Biotechnol; 29(11): 1039-1045. Briefly, specific kinase/substrate pairs along with required cofactors were prepared in reaction buffer; 20 mM Hepes pH 7.5, 10 mM MgCl2, 1 mM EGTA, 0.02% Brij35, 0.02 mg/ml BSA, 0.1 mM Na3VO4, 2 mM DTT, 1% DMSO (for specific details of individual kinase reaction components see Supplementary Table 2, Anastassiadis et al. 2011). Compounds were delivered into the reaction, followed ˜20 minutes later by addition of a mixture of ATP (Sigma, St. Louis Mo.) and 33P ATP (Perkin Elmer, Waltham Mass.) to a final concentration of 10 μM. Reactions were carried out at room temperature for 120 min, followed by spotting of the reactions onto P81 ion exchange filter paper (Whatman Inc., Piscataway, N.J.). Unbound phosphate was removed by extensive washing of filters in 0.75% phosphoric acid. […] IC50 values and curve fits were obtained using Prism (GraphPad Software). • Substrate: Peptide substrate, [KRRRAL[pS]VASLPGL], 20 μM ATP 10 μM • Reaction: Substrate+[γ-33P]-ATP 33P-Substrate+ADP • Assay: radioisotope filtration binding assay (Reaction Biology). […]

phosphorylation of 4EBP1 [3] = assay: Western blot of phosphorylated 4EBP1 in GCB-DLBCL lymphoma cell line; type: cell-based; conditions: 12 hours, 15 and 20 uM
Experimental: as §3, §5

[4] = system: Z-138 (mantle cel lymphoma, MCL) cells; assay: Cell Titer Glo viability, Z-138 mantle cell lymphoma cells; type: cell-based; conditions: Homo sapiens; Z-138, 25 uM, 24 hours
Experimental: as §1, §2

phosphorylation of 4EBP1 [5] = assay: Western blot of phosphorylated 4EBP1 in LY10 cells; type: cell-based; conditions: LY-10, 25 uM, 6 hours, vs vehicle
Experimental: as §3, §4

[6] = 24 hours, read-out: viability (viable cells as percentage of negative control)

T1 sequence (P49674 whole entry): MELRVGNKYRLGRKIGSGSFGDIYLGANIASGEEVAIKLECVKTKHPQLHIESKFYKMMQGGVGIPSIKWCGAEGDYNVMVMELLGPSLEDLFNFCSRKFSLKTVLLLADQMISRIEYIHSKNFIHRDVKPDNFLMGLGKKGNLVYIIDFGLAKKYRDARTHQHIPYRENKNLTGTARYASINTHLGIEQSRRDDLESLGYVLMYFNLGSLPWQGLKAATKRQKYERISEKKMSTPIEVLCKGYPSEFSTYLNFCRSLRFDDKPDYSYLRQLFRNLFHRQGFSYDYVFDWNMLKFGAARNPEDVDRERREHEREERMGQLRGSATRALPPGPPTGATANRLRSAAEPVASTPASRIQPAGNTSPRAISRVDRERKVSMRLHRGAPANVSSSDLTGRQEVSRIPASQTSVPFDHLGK

Compound: CC[C@@H](c1nc2cccc(F)c2c(=O)n1-c1ccccc1)n1nc(-c2ccc(OC(C)C)c(F)c2)c2c(N)ncnc21 [CUX-03166]
viability at 15 µM (LY7 cells; 24 hours): 40%
viability at 15 µM (LY7 cells; 48 hours): 10%
viability at 15 µM (LY7 cells; 72 hours): ~0%
viability at 25 µM (LY7 cells; 24 hours): 0%
increase in potency in inhibiting c-Myc compared to TGR-1202 (c-Myc [1]; LY7 cells, Western blot): near-fiftyfold increase in potency
reduction in c-Myc (Western blot) (c-Myc [1]): undetectable level
viability at 25 µM (LY10 cells; LY10, 25 uM, 48 hours, read-out: viability (viable cells as percentage of negative control)): 0%
viability at 50 µM (LY10 cells; [6]): 0%
inhibition of the c-Myc level (Western blot) (c-Myc [2]): significantly greater reduction

Compound: CC[C@H](Nc1ncnc2[nH]cnc12)c1nc2cccc(F)c2c(=O)n1-c1ccccc1 [Cal-101, reference compound]
viability at 50 µM (LY10 cells; [6]): ~80%

IC50 (CK1epsilon): 3.21 µM
Compound: CC(C)Oc1ccc(-c2nn([C@@H](C)c3nc4ncc(Br)c(N(C)C)c4c(=O)n3-c3ccccc3)c3ncnc(N)c23)cc1F [CUX-0404A]
viability at 15 µM (LY7 cells; 24 hours): 60%
viability at 15 µM (LY7 cells; 48 hours): ~42%
viability at 25 µM (LY7 cells; 24 hours): 0%
c-myc level (Western blot) (c-Myc [1]; GCB-DLBCL lymphoma cell line, 12 hours, 20 uM): undetectable
reduction of c-Myc level (Western blot) (c-Myc [1]; GCB-DLBCL lymphoma cell line, 12 hours, 15 and 20 uM, vs vehicle): significantly greater reduction
viability at 20 µM (LY10 cells; LY10 (as printed in summary), 20 μM, 48 hours): 0%
viability at 25 µM (LY10 cells; LY10 (as printed in summary), 25 μM, 24 hours, read-out: viability): 0%
inhibition of phosphorylation of 4EBP1 (Western blot) (phosphorylation of 4EBP1 [3]): Potent Inhibition
viability at 25 µM [4]: 20%

Compound: Nc1ncnc2c1c(COc1cccc(Cl)c1)nn2C1CCOCC1 [PF4800, reference compound]
inhibition of phosphorylation of 4EBP1 (Western blot) (phosphorylation of 4EBP1 [5]): moderate inhibition
reduction in c-Myc (Western blot) (c-Myc [1]): modest reduction
inhibition of the c-Myc level (Western blot) (c-Myc [2]): moderate inhibition
